Measurements from US5066652A, “Thiomethyl and sulfinylmethyl derivatives having gastric acid antisectetory activity and pharmaceutical compositions containing them” (Chiesi Farmaceutici S.p.A., priority 1988, dated 1991).
Where two headings read alike, the source gives them in different places.

Tested on: secretion of hydrochloric acid in the stomach (Shay ulcers)
Assay: Antisecretory activity - Shay ulcers (pylorus-ligated rat)
Format: in vivo
Conditions: for Emax / ED40: Rattus norvegicus; for Emax / ED50 / ED40: 2 h; for Emax: α=1 represents 100% inhibition of gastric acid hypersecretion, read-out: α (approximate value of intrinsic activity); for ED50: rat, pylorus ligation, intraduodenal or intravenous; for PR (potency ratio in comparison with Omeprazole): ratio of mean ED50 on the 3 parameters of test compound to mean ED50 of omeprazole; for ED40: footnote 1: ED40 value
Method: Antisecretory activity--Shay ulcers The gastric secretory inhibitory activity of the compounds of general formula (I) was determined in case of hypersecretion induced in the rat by ligation of gastroduodenal junction according to the procedure described by Shay (Shay H. et al, Gasgroenterology 5, 43-61, 1945). […] Thereafter, they were fasted for 24 hours, with water ad libitum, which period was sufficient to assure a good gastric emptying, then laparectomized under light ether anesthesia, so as to allow to effect a pylorus ligation as closer as possible to the gastroduodenal junction. Two hours after the ligation, the animals were killed by means of an ether excess and stomaches were removed. Gastric contents were recovered, after filtration through a gauze, and placed in graduated test-tubes and centrifuged at 3000×g for 15 minutes. The following parameters were evaluated on the surnatant: volume (ml); pH; free acidity by conversion of pH into H^+ μEq by means of Moore table (Ann. New York Acad. Sci. 1967, 866-874); titrable acidity, by titration of an amount with 0.02N NaOH, using phenolphtalein as the indicator. […] The results were expressed as percent inhibition of hypersecretion induced by pylorus ligation in the control rats. The obtained results are reported in table 3 as: ED50 (μmol/kg) calculated on the basis of the equation of the linear tract of does-effect curves obtained with the test compounds on volume, free and titrable acidities; […]

[1] = free acid output, read-out: ED50 free acid output
[2] = secretion volume, read-out: ED50 volume
[3] = titratable acid output, read-out: ED50 titratable acid output

Compound | Emax [%] | ED50 [1] [µmol/kg] | ED50 [2] [µmol/kg] | ED50 [3] [µmol/kg] | PR (potency ratio in comparison with Omeprazole) | ED40 (free acid output, read-out: ED40 free acid output) [µmol/kg] | ED40 (secretion volume, read-out: ED40 volume) [µmol/kg] | ED40 (titratable acid output, read-out: ED40 titratable acid output) [µmol/kg]
Cn1ccnc1SCc1nc2ccccc2[nH]1 [IX, 1-methyl-2-(2'-benzimidazolylmethylthio)imidazole.2HCl] | 40 to 60 | 53.2 | 65 | 24.7 | 17,2 |  |  | 
CN(C)c1ccccc1CSc1nc2cnccc2[nH]1 [L, 2-[2'-(N,N-dimethylanilyl)methylthio]imidazo-[4,5-c]-pyridine] | 100 | 5.5 | 19.7 | 6.9 | 3,8 |  |  | 
CN(C)c1ccccc1CSc1nc2cscc2[nH]1 [LII, 2-[2'-(N,N-dimethylanilyl)methylthio)thieno-[3,4-d]-imidazole] | 50 to 80 | 45 | 90 | 28 | 19,6 |  |  | 
COc1c(C)cnc(CSc2nccn2C)c1C [VIII, 1-methyl-2-[2'-(3' ,5 '-dimethyl-4'-methoxypyridyl)methylthio]imidazole.2HCl] | 40 to 60 |  |  |  | 0,02 | 0.03 | 0.12 | 0.03
Cn1ccnc1SCc1ccc2ccccc2n1 [XII, 1-methyl-2-(2'-quinolylmethylthio)imidazole.2HCl] | 100 | 34.7 | 43.5 | 38.1 | 14,0 |  |  | 
COc1c(C)cnc(C[S+]([O-])c2nccn2C)c1C (centres unmarked) [XIV, 1-methyl-2-[2'-(3' ,5 '-dimethyl-4'-methoxy)pyridylmethylsulfinyl]imidazole] | 60 | 17.1 | 26.7 | 19.2 | 7,6 |  |  | 
CN(C)c1ccccc1C[S+]([O-])c1nccn1-c1ccccc1F (centres unmarked) [XLI, 1-(2'-fluorophenyl)-2-[2'-(N,N-dimethylanilyl)methylsulfinyl]imidazole] | 100 | 42.3 | 124 | 61.9 | 27,6 |  |  | 
CN(C)c1ccccc1CSc1nc2cncnc2[nH]1 [XLV, 8-[2'-(N,N-dimethylanilyl)methylthio]purine] | 100 | 17.8 | 31.2 | 19.3 | 8,2 |  |  | 
COc1ccc(C)nc1C[S+]([O-])c1ncnc2[nH]cnc12 (centres unmarked) [XLVI, 6-[2'-(6'-methyl-3'-methoxypyridyl)methylsulfinyl]purine] | 100 | 33.1 | 52 | 45.8 | 15,8 |  |  | 
c1ccc(N2CCOCC2)c(CSc2nc3cccnc3[nH]2)c1 [XLVII, 2-(2'-[1'-(4-morpholinyl)phenyl]methylthio)imidazo-[4,5-b]-pyridine] | 70 to 90 | 42.3 | 130 | 61.9 | 28,2 |  |  | 
c1ccc2[nH]c(CSc3nc4cccnc4[nH]3)nc2c1 [XLVIII, 2-(2'-benzimidazolylmethylthio)imidazo-[4,5-b]-pyridine] | 50 to 60 | 164 | 522 | 235 | 110,9 |  |  | 
Cn1ccnc1[S+]([O-])Cc1nc2cc(C(=O)c3ccccc3)ccc2[nH]1 (centres unmarked) [XV, 1-methyl-2-[2'-(5'-benzoyl)benzimidazolylmethylsulfinyl]imidazole] | 50 to 60 | 0.6 | 3 | 0.7 | 0,5 |  |  | 
COc1ccnc(C[S+]([O-])c2nccn2C)c1 (centres unmarked) [XVI, 1-methyl-2-[2'-(4'-methoxypyridyl)methylsulfinyl]imidazole] | 40 to 60 | 0.3 | 2.3 | 0.3 | 0,3 |  |  | 
